In ChEMBL document CHEMBL2303647, “Data associated with the publication PLoS ONE, 8(3), e57888, (2013) PMID: 23505445. Compounds: GSK PKIS; Assays: NIH NCATS”:

Assays:
[1] = biological target: T1, Coelenterazine h 2-monooxygenase (Renilla reniformis, UniProt P27652)
T1 sequence (P27652 whole entry): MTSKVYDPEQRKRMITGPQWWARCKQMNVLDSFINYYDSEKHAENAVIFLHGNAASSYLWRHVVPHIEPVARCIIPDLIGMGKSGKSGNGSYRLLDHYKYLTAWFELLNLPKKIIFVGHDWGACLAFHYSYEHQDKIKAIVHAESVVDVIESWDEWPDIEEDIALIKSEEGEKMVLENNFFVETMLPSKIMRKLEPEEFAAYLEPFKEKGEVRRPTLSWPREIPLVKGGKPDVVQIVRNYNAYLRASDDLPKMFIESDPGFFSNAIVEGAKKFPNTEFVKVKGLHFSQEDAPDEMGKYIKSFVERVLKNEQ
Description: GSK_PKIS: Inhibition of Sea Pansy Luciferase (Data from PubChem: AID 652015) [NIH NCATS]

[2] = biological target: Luciferin 4-monooxygenase (Photinus pyralis, UniProt P08659)
Chain of Luciferin 4-monooxygenase (P08659 whole entry): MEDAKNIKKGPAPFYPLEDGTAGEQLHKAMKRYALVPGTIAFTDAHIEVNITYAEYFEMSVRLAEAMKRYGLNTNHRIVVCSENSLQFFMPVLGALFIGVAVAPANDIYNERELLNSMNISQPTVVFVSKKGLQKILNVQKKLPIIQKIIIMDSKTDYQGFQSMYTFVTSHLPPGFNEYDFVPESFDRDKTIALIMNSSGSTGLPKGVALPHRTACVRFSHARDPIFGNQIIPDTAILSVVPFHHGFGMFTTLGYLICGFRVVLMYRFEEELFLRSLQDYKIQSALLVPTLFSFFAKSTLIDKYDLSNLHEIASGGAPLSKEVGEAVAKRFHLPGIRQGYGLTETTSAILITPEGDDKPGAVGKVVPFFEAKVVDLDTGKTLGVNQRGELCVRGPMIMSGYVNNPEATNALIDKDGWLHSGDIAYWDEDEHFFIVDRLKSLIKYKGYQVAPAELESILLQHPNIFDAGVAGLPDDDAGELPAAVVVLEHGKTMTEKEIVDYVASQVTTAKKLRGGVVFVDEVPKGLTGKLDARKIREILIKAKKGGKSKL
Description: GSK_PKIS: Inhibition of Firefly Luciferase (Data from PubChem: AID 652016) [NIH NCATS]

SMILES	AC50 [1]	AC50 ([2]; read-out: AC50)	AC50 [2]	AC50 ([1]; read-out: AC50)
O=C(O)/C=C/C(=O)O.OCCCNc1nccc(-c2c(-c3ccc(F)cc3)nn3cc(C(F)(F)F)ccc23)n1 [GW569293E]	Phenotype: Inactive; Curve_Description: None	32.6 µM		
CS(=O)(=O)CCNCc1nc(-c2ccc3ncnc(Nc4ccc(OCc5cccc(C(F)(F)F)c5)cc4)c3c2)cs1.Cl [GW569530A]	Phenotype: Inactive; Curve_Description: None		Phenotype: Inactive; Curve_Description: None	
NS(=O)(=O)c1ccc(Nc2ncc(-c3ccccc3)o2)cc1 [GW572399X]	Phenotype: Inactive; Curve_Description: None		Phenotype: Inactive; Curve_Description: None	
CCN(CC)S(=O)(=O)c1ccc(OC)c(Nc2ncc(-c3ccccc3)o2)c1 [GW572401X]	Phenotype: Inactive; Curve_Description: None		Phenotype: Inactive; Curve_Description: None	
N#Cc1c(NC(=O)c2ccccc2F)sc2c1CCCC2 [GW572738X]	Phenotype: Inactive; Curve_Description: None	0.819 µM		
CS(=O)(=O)CCNCc1ccc(-c2ccc3ncnc(Nc4ccc(OCc5ccccc5)c(C(F)(F)F)c4)c3c2)o1.Cl [GW574782A]	Phenotype: Inactive; Curve_Description: None		Phenotype: Inactive; Curve_Description: None	
CS(=O)(=O)CCNCc1ccc(-c2ccc3ncnc(Nc4ccc(OCc5ccccc5)c(Cl)c4)c3c2)o1.Cl [GW574783B]	Phenotype: Inactive; Curve_Description: None	20.6 µM		
COc1ccc(Nc2ncc(-c3ccccc3)o2)cc1OC.Cl [GW575533A]	Phenotype: Inactive; Curve_Description: None	5.8 µM		
Cc1ccc(Nc2ccnc(Nc3cccc(C(N)=O)c3)n2)cc1O.Cl [GW575808A]	Phenotype: Inactive; Curve_Description: None	1.46 µM		
CS(=O)(=O)CCNCc1ccc(-c2ccc3ncnc(Nc4ccc(OCc5cccc(F)c5)c(C(F)(F)F)c4)c3c2)o1 [GW576484X]	Phenotype: Inactive; Curve_Description: None		Phenotype: Inactive; Curve_Description: None	
O=C(O)C(F)(F)F.[O-][S+]1CCN(Cc2ccc(-c3ccc4ncnc(Nc5ccc(OCc6cccc(F)c6)c(Cl)c5)c4c3)o2)CC1 [GW576609A]	Phenotype: Inactive; Curve_Description: None	18.3 µM		
Cl.[O-][S+]1CCN(Cc2ccc(-c3ccc4ncnc(Nc5ccc(OCc6ccccc6)c(F)c5)c4c3)o2)CC1 [GW576924A]	Phenotype: Inactive; Curve_Description: None	16.3 µM		
COc1ccccc1Nc1ncc(-c2ccccc2)o1.Cl [GW577921A]	Phenotype: Inactive; Curve_Description: None	1.03 µM		
COc1cc(/C=N/Nc2ncnc3[nH]ncc23)ccc1O [GW578748X]	Phenotype: Inactive; Curve_Description: None	3.66 µM		
CS(=O)(=O)CCNCc1ccc(-c2ccc3ncnc(Nc4ccc(OCc5ccccc5)c(Br)c4)c3c2)o1.Cl [GW580496A]	Phenotype: Inactive; Curve_Description: None	20.6 µM		
CCS(=O)(=O)c1ccc(OC)c(Nc2ncc(-c3cccc(OC)c3)o2)c1 [GW580509X]			Phenotype: Inactive; Curve_Description: None	18.3 µM
NC(=O)c1ccc2c(-c3ccnc(NCCCO)n3)c(-c3ccc(F)cc3)nn2c1 [GW581744X]	Phenotype: Inactive; Curve_Description: None		Phenotype: Inactive; Curve_Description: None	
[O-][S+]1CCN(Cc2ccc(-c3ccc4ncnc(Nc5ccc(OCc6ccccc6)c(Cl)c5)c4c3)o2)CC1 [GW583373A]		14.6 µM		0.0005 µM
NS(=O)(=O)c1ccc(NC=C2C(=O)Nc3ccc4ncsc4c32)cc1 [GW589933X]			Phenotype: Inactive; Curve_Description: None	16.3 µM
COC(=O)Nc1nc2ccc(Oc3ccc(NC(=O)Nc4cccc(Cl)c4)cc3)cc2[nH]1.Cl [GW589961A]	Phenotype: Inactive; Curve_Description: None	20.6 µM		
COC(=O)Nc1nc2ccc(Sc3ccc(NC(=O)Nc4cc(C(F)(F)F)ccc4F)cc3)cc2[nH]1.O=S(=O)(O)O [GW607049C]			Phenotype: Inactive; Curve_Description: None	0.0006 µM
Cc1nnc(-c2ccc(C)c(-c3ccc(C(=O)Nc4cccc(C#N)c4)cc3)c2)o1 [GW607117X]	Phenotype: Inactive; Curve_Description: None	41.1 µM		
COc1cc(Nc2nccc(Nc3ccc4c(C)n[nH]c4c3)n2)cc(OC)c1OC [GW612286X]		18.3 µM		36.6 µM
O=S(=O)(CCOCc1ccc(-c2ccc3ncnc(Nc4ccc(OCc5cccc(F)c5)c(Cl)c4)c3c2)o1)c1ccccc1 [GW615311X]			Phenotype: Inactive; Curve_Description: None	46.1 µM
CS(=O)(=O)CCN(CC#N)Cc1ccc(-c2ccc3ncnc(Nc4ccc(OCc5cccc(F)c5)c(Cl)c4)c3c2)o1 [GW616030X]	Phenotype: Inactive; Curve_Description: None		Phenotype: Inactive; Curve_Description: None	

SMILES	AC50 [1]	AC50 ([2]; read-out: AC50)	AC50 [2]	AC50 ([1]; read-out: AC50)
CN(C)CCCNc1nccc(-c2c(-c3ccc(F)cc3)nn3cc(C(F)(F)F)ccc23)n1.CS(=O)(=O)O [GW618013A]	Phenotype: Inactive; Curve_Description: None	41.1 µM		
N#Cc1c(NC(=O)c2cccc3ccccc23)sc2c1CCCC2 [GW620972X]	Phenotype: Inactive; Curve_Description: None	18.3 µM		
CCS(=O)(=O)c1ccc(OC)c(Nc2ncc(-c3cccc(C(C)=O)c3)o2)c1 [GW621431X]	Phenotype: Inactive; Curve_Description: None		Phenotype: Inactive; Curve_Description: None	
CCCN(CCS(C)(=O)=O)Cc1ccc(-c2ccc3ncnc(Nc4ccc(OCc5cccc(F)c5)c(Cl)c4)c3c2)o1.Cl [GW621823A]	Phenotype: Inactive; Curve_Description: None	20.6 µM		
CCS(=O)(=O)c1ccc(OC)c(Nc2ncc(-c3cccc(F)c3)o2)c1 [GW621970X]	Phenotype: Inactive; Curve_Description: None		Phenotype: Inactive; Curve_Description: None	
CCS(=O)(=O)c1ccc(OC)c(Nc2ncc(-c3ccccc3Cl)o2)c1 [GW622055X]			Phenotype: Inactive; Curve_Description: None	18.3 µM
COc1cc(Nc2ncc(-c3ccccc3)o2)cc(OC)c1OC [GW627512B]	Phenotype: Inactive; Curve_Description: None		Phenotype: Inactive; Curve_Description: None	
Cl.N#Cc1cccc(Nc2ncc(-c3ccccc3)o2)c1 [GW627834A]	Phenotype: Inactive; Curve_Description: None	1.03 µM		
COc1cc(Nc2ncc(-c3ccccc3)o2)cc(OC)c1 [GW631581B]	Phenotype: Inactive; Curve_Description: None	6.51 µM		
Cc1cccc(Nc2ncc(-c3ccccc3)o2)c1 [GW632046X]	Phenotype: Inactive; Curve_Description: None	0.58 µM		
COc1ccc(COc2ccc(Cc3cnc(N)nc3N)cc2OC)cc1 [GW632580X]	Phenotype: Inactive; Curve_Description: None		Phenotype: Inactive; Curve_Description: None	
Cl.O=S(=O)(CCNCc1ccc(-c2ccc3ncnc(Nc4ccc(OCc5cccc(F)c5)c(Cl)c4)c3c2)o1)c1ccccc1 [GW633459A]	Phenotype: Inactive; Curve_Description: None	29.1 µM		
Cl.c1ccc(Oc2ccc(Nc3ncc(-c4ccccc4)o3)cc2)cc1 [GW641155A]	Phenotype: Inactive; Curve_Description: None		Phenotype: Inactive; Curve_Description: None	
COc1ccc(-c2coc3ncnc(N)c23)cc1 [GW642125X]			Phenotype: Inactive; Curve_Description: None	20.6 µM
COc1ccc(-c2cc3c(N)ncnc3o2)cc1 [GW642138X]	Phenotype: Inactive; Curve_Description: None	6.51 µM		
COc1cc(C=NNc2ncnc3c2cnn3Cc2ccccc2)ccc1O [GW643971X]	Phenotype: Activator; Curve_Description: None	29.1 µM		
COc1cc(/C=N/Nc2ncnc3c2cnn3C(C)C)ccc1O [GW644007X]	Phenotype: Inactive; Curve_Description: None	5.8 µM		
Fc1cccc(COc2ccc(Nc3ncncc3C#Cc3ccccc3)cc2Cl)c1 [GW651576X]	Phenotype: Inactive; Curve_Description: None		Phenotype: Inactive; Curve_Description: None	
CCS(=O)(=O)c1ccc(OC)c(Nc2nccc(N(C)c3ccc4c(C)n[nH]c4c3)n2)c1.Cl [GW654652C]			Phenotype: Inactive; Curve_Description: None	32.6 µM
COC(=O)Nc1nc2cc(Oc3cccc(NC(=O)Nc4cc(C(F)(F)F)ccc4F)c3)ccc2[nH]1.Cl [GW659386A]	Phenotype: Inactive; Curve_Description: None	16.3 µM		
Nc1ccc(C#Cc2cncnc2Nc2ccc(OCc3cccc(F)c3)c(Cl)c2)cc1 [GW659893X]	Phenotype: Inactive; Curve_Description: None	20.6 µM		
CCc1cccc(NC(=O)Nc2ccc(Oc3ccc4nc(NC(=O)OC)[nH]c4c3)cc2)c1 [GW673715X]	Phenotype: Inactive; Curve_Description: None	32.6 µM		
CCS(=O)(=O)c1ccc(OC)c(Nc2ncc(-c3cccc(-c4ccccc4F)c3)o2)c1 [GW678313X]	Phenotype: Inactive; Curve_Description: None		Phenotype: Inactive; Curve_Description: None	
COc1ccc(-c2cc(-c3c[nH]nc3-c3ccccn3)ccn2)cc1 [GW679410X]	Phenotype: Inactive; Curve_Description: None	16.3 µM		
C#Cc1cccc(Nc2ncnc3ccc(OCCCCNCCS(C)(=O)=O)cc23)c1 [GW680191X]			Phenotype: Inactive; Curve_Description: None	29.1 µM
